Assay results published in publication PMC9709406 (Frontiers in Pharmacology, 2022).
Values joined by “and” are separate entries in the source; they are usually repeats but may differ in a detail not shown here. Equal values may be shown once.

Key:
SHEE cells = assay: MTT assay, normal esophageal epithelial cell line SHEE; assay type: cell-based; details: Homo sapiens, 48 h, n = 5
Text: (§1) The human cancer cells (H1650, H1975, KYSE70, KYSE410 and KYSE450) were purchased from the Type Culture Collection of the Chinese Academy of Sciences (Shanghai, China). The human immortalized normal esophageal epithelial cell line SHEE was donated by Dr. Enmin Li from the Laboratory of Tumor Pathology (Shantou University Medical College, Shantou, Guangdong, China). Drug-resistant cells (H1650TR, H1975OR, KYSE70TR, KYSE410TR and KYSE450TR) were induced by China-US (Henan) Hormel Cancer Institute. The cellswere cultured in RPMI-1640 complete growth medium containing 100 U/mL penicillin-streptomycin and 10% FBS. Based on the above medium formula, 100 nm/L paclitaxel was added in taxol-resistant cells, 100 nm/L gefitinib was added in gefitinib-resistant cells. The cells were incubated at 37 °C in an atmosphere containing 5% of CO2. The compounds were dissolved in DMSO to make a 50 mM stock solution and were diluted to the concentration of working solutions with complete growth medium before administration.
(§2) Cells were seeded in 96-well plates with 2,200–2,500 cells/well in100 μL. One day after seeding, test compounds with the concentration between 0 and 50 μM were added with 0.1% DMSO as control. Five multiple wells for each concentration. After 48 h, MTT was added and incubated in the plate for 1–4 h in the incubator. The absorbance at 490 nm was measured using a microplate reader (Thermo).

KYSE410 cells = assay: MTT assay, KYSE410; assay type: cell-based, human; details: for IC50: Homo sapiens, KYSE-410, MTT, 48 h, KYSE410, n = 5, read-out: IC50 48 h KYSE410
Text: as §1, §2

KYSE70 cells = assay: MTT assay, KYSE70; assay type: cell-based, human; details: for IC50: Homo sapiens, KYSE-70, MTT, 48 h, KYSE70, n = 5
Text: as §1, §2

H1975 cells = assay: MTT assay for cell proliferation and cytotoxicity, H1975; assay type: cell-based, human; details: Homo sapiens, NCI-H1975, 48 h, MTT, 48 h, H1975, n = 5; read-out: IC50 48 h H1975
Text: as §1
Cells were seeded in 96-well plates with 2,200–2,500 cells/well in100 μL. One day after seeding, test compounds with the concentration between 0 and 50 μM were added with 0.1% DMSO as control. Five multiple wells for each concentration. […] The absorbance at 490 nm was measured using a microplate reader (Thermo).

KYSE450 cells = assay: MTT assay, KYSE450; assay type: cell-based, human; details: for IC50: Homo sapiens, KYSE-450, MTT, 48 h, KYSE450, n = 5, read-out: IC50 48 h KYSE450; for absorbance 490 nm, single well / mean absorbance 490 nm (row G) / mean absorbance 490 nm minus background (row H): KYSE450
Text: as §1, §2

H1650 cells = assay: MTT assay for cell proliferation and cytotoxicity, H1650; assay type: cell-based; details: Homo sapiens, NCI-H1650, 48 h, H1650, n = 5
Text: as §1, §2

[1] = concentration 12.5 (unit not given)
[2] = concentration 25 (unit not given)
[3] = concentration 50 (unit not given)
[4] = concentration 100 (unit not given)

SMILES | IC50 (SHEE cells) [µM] | IC50 (KYSE410 cells) [µM] | IC50 (KYSE70 cells) [µM] | IC50 (H1975 cells) [µM] | melting point [°C] | IC50 (KYSE450 cells) [µM] | IC50 (H1650 cells) [µM] | blank-corrected absorbance 490 nm relative to control (fraction) (KYSE410 cells; KYSE410, concentration 12.5) | inhibition (1 minus fraction of control) (KYSE410 cells; KYSE410, concentration 12.5) | blank-corrected absorbance 490 nm relative to control (fraction) (KYSE410 cells; KYSE410, concentration 25) | inhibition (1 minus fraction of control) (KYSE410 cells; KYSE410, concentration 25) | blank-corrected absorbance 490 nm relative to control (fraction) (KYSE410 cells; KYSE410, concentration 50) | inhibition (1 minus fraction of control) (KYSE410 cells; KYSE410, concentration 50) | blank-corrected absorbance 490 nm relative to control (fraction) (KYSE410 cells; KYSE410, concentration 100) | inhibition (1 minus fraction of control) (KYSE410 cells; KYSE410, concentration 100) | blank-corrected absorbance 490 nm relative to control (fraction) (KYSE70 cells; KYSE70, concentration 12.5) | inhibition (1 minus fraction of control) (KYSE70 cells; KYSE70, concentration 12.5) | blank-corrected absorbance 490 nm relative to control (fraction) (KYSE70 cells; KYSE70, concentration 25) | inhibition (1 minus fraction of control) (KYSE70 cells; KYSE70, concentration 25) | blank-corrected absorbance 490 nm relative to control (fraction) (KYSE70 cells; KYSE70, concentration 50) | also measured
Brc1ccc(-n2cc(-c3cccc(Nc4ncnc5cc6c(cc45)OCCOCCOCCO6)c3)nn2)cc1 [compound 3j] | > 50 | > 50 | 50 | 5.02 ± 0.37 | 158 to 161 | 12.5 ± 1.22 | 27.6 ± 1.85 |  |  |  |  |  |  |  |  |  |  |  |  |  | 
c1ccc(Cn2cc(-c3cccc(Nc4ncnc5cc6c(cc45)OCCOCCOCCO6)c3)nn2)cc1 [compound 3r] | 21 ± 1.11 | 9.23 ± 0.97 | 7.32 ± 0.62 | 19.2 ± 1.59 | 146 to 149 | 28.1 ± 1.18 | 19.6 ± 1.72 | 0.3227 | 0.6773 | 0.3216 | 0.6784 | 0.3502 | 0.6498 | 0.1592 | 0.8408 | 0.2722 | 0.7278 | 0.1457 | 0.8543 | 0.1803 | inhibition (1 minus fraction of control) (KYSE70 cells; KYSE70, concentration 50): 0.8197; blank-corrected absorbance 490 nm relative to control (fraction) (KYSE70 cells; KYSE70, concentration 100): 0.1267; inhibition (1 minus fraction of control) (KYSE70 cells; KYSE70, concentration 100): 0.8733; absorbance 490 nm, single well (KYSE450 cells; [1]): 0.6476 and 0.598 and 0.6398 and 0.6662; mean absorbance 490 nm (row G) (KYSE450 cells; [1]): 0.6379; mean absorbance 490 nm minus background (row H) (KYSE450 cells; [1]): 0.586; absorbance 490 nm, single well (KYSE450 cells; [2]): 0.4195 and 0.4416 and 0.4375 and 0.4182; mean absorbance 490 nm (row G) (KYSE450 cells; [2]): 0.4292; mean absorbance 490 nm minus background (row H) (KYSE450 cells; [2]): 0.3773; absorbance 490 nm, single well (KYSE450 cells; [3]): 0.1593 and 0.152 and 0.1434; mean absorbance 490 nm (row G) (KYSE450 cells; [3]): 0.1516; mean absorbance 490 nm minus background (row H) (KYSE450 cells; [3]): 0.09971; absorbance 490 nm, single well (KYSE450 cells; [4]): 0.127 and 0.1396 and 0.1367; mean absorbance 490 nm (row G) (KYSE450 cells; [4]): 0.1344; mean absorbance 490 nm minus background (row H) (KYSE450 cells; [4]): 0.08257
c1ccc(-n2cc(-c3cccc(Nc4ncnc5cc6c(cc45)OCCOCCOCCO6)c3)nn2)cc1 [compound 3f] | > 50 | > 50 | 25 ± 1.53 | > 50 | 148 to 150 | 45 ± 2.53 | 12.3 ± 0.91 |  |  |  |  |  |  |  |  |  |  |  |  |  | 
Ic1ccccc1Cn1cc(-c2cccc(Nc3ncnc4cc5c(cc34)OCCOCCOCCO5)c2)nn1 [compound 3p] | > 50 | > 50 | 19.9 ± 1.31 | 39.5 ± 1.91 | 121 to 123 | > 50 | 4.41 ± 0.31 |  |  |  |  |  |  |  |  |  |  |  |  |  | 
Cc1ccccc1Cn1cc(-c2cccc(Nc3ncnc4cc5c(cc34)OCCOCCOCCO5)c2)nn1 [compound 3n] | 8.05 ± 0.71 | 8.23 ± 0.92 | 6.87 ± 0.51 | 18.5 ± 1.43 | 114 to 117 | 13.4 ± 0.99 | 17 ± 1.27 | 0.2414 | 0.7586 | 0.04668 | 0.9533 | 0.02603 | 0.974 | 0.07058 | 0.9294 | 0.09055 | 0.9094 | 0.002598 | 0.9974 | 0.03637 | inhibition (1 minus fraction of control) (KYSE70 cells; KYSE70, concentration 50): 0.9636; blank-corrected absorbance 490 nm relative to control (fraction) (KYSE70 cells; KYSE70, concentration 100): 0.0579; inhibition (1 minus fraction of control) (KYSE70 cells; KYSE70, concentration 100): 0.9421; absorbance 490 nm, single well (KYSE450 cells; [1]): 0.3403 and 0.3956 and 0.3877; mean absorbance 490 nm (row G) (KYSE450 cells; [1]): 0.3745; mean absorbance 490 nm minus background (row H) (KYSE450 cells; [1]): 0.3163; absorbance 490 nm, single well (KYSE450 cells; [2]): 0.0581 and 0.0586 and 0.0622 and 0.0619; mean absorbance 490 nm (row G) (KYSE450 cells; [2]): 0.0602; mean absorbance 490 nm minus background (row H) (KYSE450 cells; [2]): 0.002; absorbance 490 nm, single well (KYSE450 cells; [3]): 0.062 and 0.0626 and 0.0677 and 0.0632; mean absorbance 490 nm (row G) (KYSE450 cells; [3]): 0.06374; mean absorbance 490 nm minus background (row H) (KYSE450 cells; [3]): 0.00554; absorbance 490 nm, single well (KYSE450 cells; [4]): 0.0608 and 0.061 and 0.0613 and 0.0611 and 0.0627; mean absorbance 490 nm (row G) (KYSE450 cells; [4]): 0.06138; mean absorbance 490 nm minus background (row H) (KYSE450 cells; [4]): 0.00318
Brc1cccc(Cn2cc(-c3cccc(Nc4ncnc5cc6c(cc45)OCCOCCOCCO6)c3)nn2)c1 [compound 3q] | > 50 | > 50 | 20.7 ± 1.73 | 47.3 ± 2.13 | 113 to 116 | 21.8 ± 1.12 | 21.5 ± 1.87 |  |  |  |  |  |  |  |  |  |  |  |  |  | 
